The target in this experiment is T1, human mGlu5a receptor (Homo sapiens, UniProt P41594).
T1 construct: expressed in transfected cells
Briefly: Intracellular Ca2+ mobilization assay (mGlu5 PAM). The class given is cell-based. The note with it: for Emax: HEK293, maximal response in % of the maximal stimulatory effect obtained with saturating concentrations of L-glutamate, read-out: Eff. (%); for EC50: HEK-293 cells stably transfected with human mGlu5a receptor, L-glutamate added at EC20 (typically around 80 μM) after 10-30 min pre-incubation with test compound, read-out: EC50 (nM) mGlu5PAM. The protocol: A monoclonal HEK-293 cell line stably transfected with a cDNA encoding for the human mGlu5a receptor was generated; for the work with mGlu5 Positive Allosteric Modulators (PAMs), a cell line with low receptor expression levels and low constitutive receptor activity was selected to allow the differentiation of agonistic versus PAM activity. Cells were cultured according to standard protocols (Freshney, 2000) in Dulbecco's Modified Eagle Medium with high glucose supplemented with 1 mM glutamine, 10% (vol/vol) heat-inactivated bovine calf serum, Penicillin/Streptomycin, 50 μg/ml hygromycin and 15 μg/ml blasticidin (all cell culture reagents and antibiotics from Invitrogen, Basel, Switzerland).
About 24 hrs before an experiment, 5×10^4 cells/well were seeded in poly-D-lysine coated, black/clear-bottomed 96-well plates. The cells were loaded with 2.5 μM Fluo-4AM in loading buffer (1×HBSS, 20 mM HEPES) for 1 hr at 37° C. and washed five times with loading buffer. The cells were transferred into a Functional Drug Screening System 7000 (Hamamatsu, Paris, France), and 11 half logarithmic serial dilutions of test compound at 37° C. were added and the cells were incubated for 10-30 min with on-line recording of fluorescence. Following this pre-incubation step, the agonist L-glutamate was added to the cells at a concentration corresponding to EC20 (typically around 80 μM) with on-line recording of fluorescence; in order to account for day-to-day variations in the responsiveness of cells, the EC20 of glutamate was determined immediately ahead of each experiment by recording of a full dose-response curve of glutamate.
Responses were measured as peak increase in fluorescence minus basal (i.e. fluorescence without addition of L-glutamate), normalized to the maximal stimulatory effect obtained with saturating concentrations of L-glutamate. Graphs were plotted with the % maximal stimulatory using XLfit, a curve fitting program that iteratively plots the data using Levenburg Marquardt algorithm. The single site competition analysis equation used was y=A+((B−A)/(1+((x/C)D))), where y is the % maximal stimulatory effect, A is the minimum y, B is the maximum y, C is the EC50, x is the log 10 of the concentration of the competing compound and D is the slope of the curve (the Hill Coefficient). From these curves the EC50 (concentration at which half maximal stimulation was achieved), the Hill coefficient as well as the maximal response in % of the maximal stimulatory effect obtained with saturating concentrations of L-glutamate were calculated.
A depression of the signal observed after addition of the EC20 concentration of L-glutamate was indicative of an inhibitory activity of the test compound.

T1 sequence (P41594 21-1180 isoform P41594-2 limits assumed): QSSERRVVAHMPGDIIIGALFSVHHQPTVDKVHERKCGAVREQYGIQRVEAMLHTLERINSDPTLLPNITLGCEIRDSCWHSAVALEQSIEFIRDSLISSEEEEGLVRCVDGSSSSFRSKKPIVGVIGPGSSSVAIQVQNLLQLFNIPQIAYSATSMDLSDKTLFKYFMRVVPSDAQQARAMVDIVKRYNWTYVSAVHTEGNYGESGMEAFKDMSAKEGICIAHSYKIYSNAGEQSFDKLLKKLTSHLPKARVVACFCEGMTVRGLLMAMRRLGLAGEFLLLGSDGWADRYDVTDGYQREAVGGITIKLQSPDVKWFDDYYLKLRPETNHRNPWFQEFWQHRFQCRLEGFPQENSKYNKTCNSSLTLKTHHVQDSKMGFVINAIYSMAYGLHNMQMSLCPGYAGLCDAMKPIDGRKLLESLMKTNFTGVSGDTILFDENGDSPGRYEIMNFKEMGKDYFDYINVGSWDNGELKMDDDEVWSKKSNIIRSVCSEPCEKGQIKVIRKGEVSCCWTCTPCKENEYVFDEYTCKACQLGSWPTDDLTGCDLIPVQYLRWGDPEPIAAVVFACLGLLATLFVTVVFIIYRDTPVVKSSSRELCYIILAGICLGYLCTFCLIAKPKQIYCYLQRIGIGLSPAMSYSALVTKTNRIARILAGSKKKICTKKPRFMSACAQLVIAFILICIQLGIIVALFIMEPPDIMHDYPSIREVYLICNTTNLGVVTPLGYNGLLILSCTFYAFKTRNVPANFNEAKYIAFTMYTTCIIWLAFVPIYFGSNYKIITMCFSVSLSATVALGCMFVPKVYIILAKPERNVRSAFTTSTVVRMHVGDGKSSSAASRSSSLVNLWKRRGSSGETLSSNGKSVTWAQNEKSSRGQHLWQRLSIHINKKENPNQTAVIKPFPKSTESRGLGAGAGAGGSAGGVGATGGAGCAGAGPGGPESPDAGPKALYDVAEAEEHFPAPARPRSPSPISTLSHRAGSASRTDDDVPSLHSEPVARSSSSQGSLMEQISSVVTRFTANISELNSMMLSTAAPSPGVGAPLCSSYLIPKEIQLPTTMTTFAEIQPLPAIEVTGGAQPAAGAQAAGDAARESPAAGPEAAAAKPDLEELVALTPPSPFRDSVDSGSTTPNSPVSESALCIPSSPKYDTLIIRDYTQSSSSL

On to `CC1(C)CC(O)CCN1C(=O)c1ccc(C#Cc2ccccc2)cn1` (racemic) [Example 38, (RS)-(4-Hydroxy-2,2-dimethyl-piperidin-1-yl)-(5-phenylethynyl-pyridin-2-yl)-methanone], for which the EC50 amounted to 28 nM. Further, the Emax (HEK-293 human mGlu5a cells) worked out at 57%.
The corresponding values for `CC1(C)CN(C(=O)c2ccc(C#Cc3ccccc3)cn2)CCC1O` (racemic) [Example 39, (RS)-(4-Hydroxy-3,3-dimethyl-piperidin-1-yl)-(5-phenylethynyl-pyridin-2-yl)-methanone] are 35 nM and 58%.
Regarding `CC1(C)CN(C(=O)c2ccc(C#Cc3ccc(F)cc3)cn2)CCC1O` (racemic) [Example 40, (RS)-[5-(4-Fluoro-phenylethynyl)-pyridin-2-yl]-(4-hydroxy-3,3-dimethyl-piperidin-1-yl)-methanone], the EC50 is 93 nM. Also, the Emax (HEK-293 human mGlu5a cells) came out at 37%.
`CC1(C)CN(C(=O)c2ccc(C#Cc3cccc(F)c3)cn2)CCC1O` (racemic) [Example 41, (RS)-[5-(3-Fluoro-phenylethynyl)-pyridin-2-yl]-(4-hydroxy-3,3-dimethyl-piperidin-1-yl)-methanone]: the EC50 is 72 nM. Where the note is “HEK-293 human mGlu5a cells”, the Emax was 45%.
With `CC1(C)CC(O)CCN1C(=O)c1ncc(C#Cc2ccccc2)cn1` (racemic) [Example 47, (RS)-(4-Hydroxy-2,2-dimethyl-piperidin-1-yl)-(5-phenylethynyl-pyrimidin-2-yl)-methanone], the EC50 is 66 nM. Further, the Emax (HEK-293 human mGlu5a cells) was found to be 57%.
As to `CC1(C)CN(C(=O)c2ncc(C#Cc3ccccc3)cn2)CCC1O` (racemic) [Example 48, (RS)-(4-Hydroxy-3,3-dimethyl-piperidin-1-yl)-(5-phenylethynyl-pyrimidin-2-yl)-methanone], the EC50 is 49 nM. Further, under “HEK-293 human mGlu5a cells”, the Emax was determined as 55%.
`CC1(C)CN(C(=O)c2ncc(C#Cc3cccc(F)c3)cn2)CCC1O` (racemic) [Example 49, (RS)-[5-(3-Fluoro-phenylethynyl)-pyrimidin-2-yl]-(4-hydroxy-3,3-dimethyl-piperidin-1-yl)-methanone]: the EC50 was determined as 98 nM. Also, where the note is “HEK-293 human mGlu5a cells”, the Emax was determined as 48%.
Take `CC(N(C)C(=O)c1ncc(C#Cc2ccccc2)cc1F)C(F)(F)F` (racemic) [Example 51, (RS)-3-Fluoro-5-phenylethynyl-pyridine-2-carboxylic Acid methyl-(2,2,2-trifluoro-1-methyl-ethyl)-amide]: the EC50 was determined as 66 nM. Also, the Emax (HEK-293 human mGlu5a cells) was 69%.
Take `CC(NC(=O)c1ccc(C#Cc2ccnc(Cl)c2)cn1)C(F)(F)F` (racemic) [Example 57, (RS)-5-(2-Chloro-pyridin-4-ylethynyl)-pyridine-2-carboxylic Acid (2,2,2-trifluoro-1-methyl-ethyl)-amide]: the EC50 was determined as 22 nM. Also, the Emax (HEK-293 human mGlu5a cells) was 42%.
Regarding `CC(NC(=O)c1ccc(C#Cc2cccc(Cl)c2)cn1)C(F)(F)F` (racemic) [Example 61, (RS)-5-(3-Chloro-phenylethynyl)-pyridine-2-carboxylic Acid (2,2,2-trifluoro-1-methyl-ethyl)-amide], the EC50 is 61 nM. For the same compound, under “HEK-293 human mGlu5a cells”, the Emax stood at 83%.
With `CC(N(C)C(=O)c1ccc(C#Cc2cccc(Cl)c2)cn1)C(F)(F)F` (racemic) [Example 62, (RS)-5-(3-Chloro-phenylethynyl)-pyridine-2-carboxylic acid methyl-(2,2,2-trifluoro-1-methyl-ethyl)-amide], the EC50 was found to be 25 nM. Also, under “HEK-293 human mGlu5a cells”, the Emax stood at 35%.
Turning to `CC1(C)CC(O)CCN1C(=O)c1ccc(C#Cc2cccc(F)c2)cn1` (racemic) [Example 63, (RS)-[5-(3-Fluoro-phenylethynyl)-pyridin-2-yl]-(4-hydroxy-2,2-dimethyl-piperidin-1-yl)-methanone], the EC50 was 40 nM. Moreover, the Emax (HEK-293 human mGlu5a cells) was 45%.
As to `CC1(C)CC(O)CCN1C(=O)c1ccc(C#Cc2cc(F)ccc2F)cn1` (racemic) [Example 64, (RS)-[5-(2,5-Difluoro-phenylethynyl)-pyridin-2-yl]-(4-hydroxy-2,2-dimethyl-piperidin-1-yl)-methanone], the half-maximal effective concentration (EC50) was 34 nM. The Emax (HEK-293 human mGlu5a cells) came out at 42%.
In the case of `CC1(C)CC(O)CCN1C(=O)c1ncc(C#Cc2cccc(F)c2)cn1` (racemic) [Example 65, (RS)-[5-(3-Fluoro-phenylethynyl)-pyrimidin-2-yl]-(4-hydroxy-2,2-dimethyl-piperidin-1-yl)-methanone], the EC50 was 149 nM. Besides, where the note is “HEK-293 human mGlu5a cells”, the Emax worked out at 55%.
On the same counts, the results for `CC1(C)CC(O)CCN1C(=O)c1ncc(C#Cc2cc(F)ccc2F)cn1` (racemic) [Example 66, (RS)-[5-(2,5-Difluoro-phenylethynyl)-pyrimidin-2-yl]-(4-hydroxy-2,2-dimethyl-piperidin-1-yl)-methanone] are 101 nM and 49%.
For `CC1(C)CC(O)CCN1C(=O)c1ncc(C#Cc2cccc(F)c2)cc1F` (racemic) [Example 67, (RS)-[3-Fluoro-5-(3-fluoro-phenylethynyl)-pyridin-2-yl]-(4-hydroxy-2,2-dimethyl-piperidin-1-yl)-methanone], the half-maximal effective concentration (EC50) was 54 nM. For the same compound, the Emax (HEK-293 human mGlu5a cells) came to 57%.
With `CC1(C)CC(O)CCN1C(=O)c1ncc(C#Cc2cc(F)ccc2F)cc1F` (racemic) [Example 68, (RS)-[5-(2,5-Difluoro-phenylethynyl)-3-fluoro-pyridin-2-yl]-(4-hydroxy-2,2-dimethyl-piperidin-1-yl)-methanone], the EC50 is 46 nM. Also, the Emax (HEK-293 human mGlu5a cells) turned out to be 54%.
On the same counts, the results for `CC(NC(=O)c1ccc(C#Cc2ccnc(Cl)c2)cn1)C(F)(F)F` (single isomer, unassigned) [Example 59, (R) or (S)-5-(2-Chloro-pyridin-4-ylethynyl)-pyridine-2-carboxylic Acid (2,2,2-trifluoro-1-methyl-ethyl)-amide] are 27 nM and 47%.
As to `CC(NC(=O)c1ccc(C#Cc2ccnc(Cl)c2)cn1)C(F)(F)F` (single isomer, unassigned) [Example 60, (S) or (R)-5-(2-Chloro-pyridin-4-ylethynyl)-pyridine-2-carboxylic Acid (2,2,2-trifluoro-1-methyl-ethyl)-amide], the EC50 was 69 nM. Also, the “Eff. (%)” value (maximal response in % of the maximal stimulatory effect obtained with saturating concentrations of L-glutamate, HEK-293 human mGlu5a cells) stood at 60%.
Turning to `CC(C)(C)NC(=O)c1ccc(C#Cc2ccccc2)cn1` [Example 1, 5-Phenylethynyl-pyridine-2-carboxylic Acid tert-butylamide], the EC50 was found to be 49 nM. The Emax (HEK-293 human mGlu5a cells) came to 115%.
As to `CN(C(=O)c1ccc(C#Cc2ccccc2)cn1)C(C)(C)C` [Example 2, 5-Phenylethynyl-pyridine-2-carboxylic Acid tert-butyl-methyl-amide], the EC50 is 19 nM. Further, where the note is “HEK-293 human mGlu5a cells”, the Emax is 87%.
The corresponding values for `CN(C(=O)c1ccc(C#Cc2cccc(F)c2)cn1)C(C)(C)C` [Example 3, 5-(3-Fluoro-phenylethynyl)-pyridine-2-carboxylic Acid tert-butyl-methyl-amide] are 16 nM and 64%.
For the compound `CN(C(=O)c1ccc(C#Cc2ccc(F)cc2)cn1)C(C)(C)C` [Example 4, 5-(4-Fluoro-phenylethynyl)-pyridine-2-carboxylic Acid tert-butyl-methyl-amide], the EC50 amounted to 18 nM. Moreover, the Emax (HEK-293 human mGlu5a cells) stood at 83%.
As to `CN(C(=O)c1ccc(C#Cc2cc(F)ccc2F)cn1)C(C)(C)C` [Example 5, 5-(2,5-Difluoro-phenylethynyl)-pyridine-2-carboxylic Acid tert-butyl-methyl-amide], the concentration for a half-maximal effect (EC50) came out at 12 nM. Moreover, where the note is “HEK-293 human mGlu5a cells”, the Emax stood at 42%.
For the compound `CN(C(=O)c1ccc(C#Cc2cccnc2)cn1)C(C)(C)C` [Example 6, 5-Pyridin-3-ylethynyl-pyridine-2-carboxylic Acid tert-butyl-methyl-amide], the EC50 worked out at 72 nM. Where the note is “HEK-293 human mGlu5a cells”, the Emax worked out at 70%.
The corresponding values for `CN(C(=O)c1ccc(C#Cc2cncc(Cl)c2)cn1)C(C)(C)C` [Example 7, 5-(5-Chloro-pyridin-3-ylethynyl)-pyridine-2-carboxylic Acid tert-butyl-methyl-amide] are 17 nM and 33%.
